Laboratory results reported in ChEMBL document CHEMBL1129840, “The synthesis and SAR of new 4-(N-alkyl-N-phenyl)amino-6,7-dimethoxyquinazolines and 4-(N-alkyl-N-phenyl)aminopyrazolo[3,4-d]pyrimidines, inhibitors of CSF-1R tyrosine kinase activity” (Bioorg Med Chem Lett, 1997).

Key:
[1] = target: Macrophage colony-stimulating factor 1 receptor (Homo sapiens, UniProt P07333); assay: Antagonism towards Colony stimulating factor 1 receptor (CSF-1R); assay type: functional
[2] = target: Epidermal growth factor receptor (Homo sapiens, UniProt P00533); assay: Antagonism towards Epidermal growth factor receptor
Epidermal growth factor receptor, sequence (P00533 whole entry): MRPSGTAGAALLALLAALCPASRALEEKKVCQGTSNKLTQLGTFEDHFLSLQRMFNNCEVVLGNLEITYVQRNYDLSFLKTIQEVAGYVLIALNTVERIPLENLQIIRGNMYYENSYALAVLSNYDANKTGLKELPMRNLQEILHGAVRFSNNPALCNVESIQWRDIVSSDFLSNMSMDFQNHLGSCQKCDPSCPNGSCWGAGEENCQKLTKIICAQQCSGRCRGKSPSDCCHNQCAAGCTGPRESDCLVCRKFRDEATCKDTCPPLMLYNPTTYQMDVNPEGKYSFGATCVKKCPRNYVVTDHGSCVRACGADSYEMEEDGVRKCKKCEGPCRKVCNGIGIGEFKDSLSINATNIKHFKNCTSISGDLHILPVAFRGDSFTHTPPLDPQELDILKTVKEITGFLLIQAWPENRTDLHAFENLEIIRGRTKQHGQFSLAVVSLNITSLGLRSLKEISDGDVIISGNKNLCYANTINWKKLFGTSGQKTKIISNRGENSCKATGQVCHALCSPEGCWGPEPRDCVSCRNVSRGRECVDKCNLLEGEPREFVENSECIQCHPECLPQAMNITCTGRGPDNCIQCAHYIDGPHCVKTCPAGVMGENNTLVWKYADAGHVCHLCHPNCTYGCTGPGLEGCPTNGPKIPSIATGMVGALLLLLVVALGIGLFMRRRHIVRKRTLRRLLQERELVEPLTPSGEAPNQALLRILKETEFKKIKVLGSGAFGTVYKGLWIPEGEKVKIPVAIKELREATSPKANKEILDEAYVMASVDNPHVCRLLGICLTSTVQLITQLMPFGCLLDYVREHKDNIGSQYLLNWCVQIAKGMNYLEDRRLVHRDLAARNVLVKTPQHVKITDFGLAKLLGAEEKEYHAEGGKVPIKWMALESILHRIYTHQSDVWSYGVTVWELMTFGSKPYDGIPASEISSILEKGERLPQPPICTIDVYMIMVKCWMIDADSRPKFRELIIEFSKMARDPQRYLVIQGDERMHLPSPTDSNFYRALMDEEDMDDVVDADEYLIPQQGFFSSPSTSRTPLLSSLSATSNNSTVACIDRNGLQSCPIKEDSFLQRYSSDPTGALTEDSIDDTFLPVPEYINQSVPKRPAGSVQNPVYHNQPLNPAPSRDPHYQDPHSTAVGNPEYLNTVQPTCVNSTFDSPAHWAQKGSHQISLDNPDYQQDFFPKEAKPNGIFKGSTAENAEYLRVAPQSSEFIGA

[3] = target: Platelet-derived growth factor receptor (Homo sapiens, UniProt P09619+P16234); assay: Inhibition of platelet-derived growth factor receptor (PDGF-R)
[4] = target: Tyrosine-protein kinase Lck (Homo sapiens, UniProt P06239); assay: Inhibition of p56 lck tyrosine kinase (inactive)
Tyrosine-protein kinase Lck, sequence (P06239 whole entry): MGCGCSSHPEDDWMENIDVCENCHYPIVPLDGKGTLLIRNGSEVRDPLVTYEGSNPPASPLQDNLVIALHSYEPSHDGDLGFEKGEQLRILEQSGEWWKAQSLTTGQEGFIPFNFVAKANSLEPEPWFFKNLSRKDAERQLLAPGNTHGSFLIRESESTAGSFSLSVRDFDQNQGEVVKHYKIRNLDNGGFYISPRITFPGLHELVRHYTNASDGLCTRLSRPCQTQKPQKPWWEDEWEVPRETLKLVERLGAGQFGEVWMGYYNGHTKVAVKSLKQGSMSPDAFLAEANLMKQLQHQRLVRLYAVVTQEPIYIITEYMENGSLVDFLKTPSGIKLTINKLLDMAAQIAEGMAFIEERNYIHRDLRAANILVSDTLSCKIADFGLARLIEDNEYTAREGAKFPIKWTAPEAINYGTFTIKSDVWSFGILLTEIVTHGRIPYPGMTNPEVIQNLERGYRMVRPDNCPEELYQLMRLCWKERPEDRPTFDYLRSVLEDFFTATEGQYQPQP

Macrophage colony-stimulating factor 1 receptor, sequence (P07333 whole entry): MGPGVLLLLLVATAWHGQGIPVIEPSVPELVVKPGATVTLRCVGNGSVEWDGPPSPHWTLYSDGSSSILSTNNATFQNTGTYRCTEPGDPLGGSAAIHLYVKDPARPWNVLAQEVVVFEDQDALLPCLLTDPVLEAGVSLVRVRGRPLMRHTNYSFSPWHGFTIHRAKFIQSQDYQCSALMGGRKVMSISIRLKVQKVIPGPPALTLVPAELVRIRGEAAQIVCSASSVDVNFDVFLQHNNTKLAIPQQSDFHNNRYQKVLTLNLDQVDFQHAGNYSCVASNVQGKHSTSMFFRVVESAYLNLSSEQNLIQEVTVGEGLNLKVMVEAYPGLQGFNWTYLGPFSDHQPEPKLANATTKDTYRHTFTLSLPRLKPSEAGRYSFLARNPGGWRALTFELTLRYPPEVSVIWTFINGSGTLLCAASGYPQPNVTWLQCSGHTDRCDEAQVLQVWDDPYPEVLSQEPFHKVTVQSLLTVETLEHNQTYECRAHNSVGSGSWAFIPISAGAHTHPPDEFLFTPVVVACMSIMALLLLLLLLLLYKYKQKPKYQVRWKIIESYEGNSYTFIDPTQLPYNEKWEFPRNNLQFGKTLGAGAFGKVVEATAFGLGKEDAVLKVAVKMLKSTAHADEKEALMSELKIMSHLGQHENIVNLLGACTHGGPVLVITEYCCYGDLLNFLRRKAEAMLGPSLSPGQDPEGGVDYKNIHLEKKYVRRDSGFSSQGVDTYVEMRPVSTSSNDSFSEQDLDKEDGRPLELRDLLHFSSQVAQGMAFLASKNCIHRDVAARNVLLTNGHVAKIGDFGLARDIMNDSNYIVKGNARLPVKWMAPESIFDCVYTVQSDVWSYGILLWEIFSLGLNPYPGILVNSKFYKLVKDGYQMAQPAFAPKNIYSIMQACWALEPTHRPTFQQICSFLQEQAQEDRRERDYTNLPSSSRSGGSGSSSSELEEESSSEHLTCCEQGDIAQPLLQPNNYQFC

Row | SMILES | IC50 [1] | IC50 [2] | IC50 [3] | IC50 [4]
1 | Cc1cc(C)c2ncnc(N(C)c3ccccc3)c2c1 | > 20 µM | > 20 µM |  | 
2 | CN(c1ccccc1)c1ncnc2ccc(Cl)cc12 | 5 µM | > 20 µM |  | 
3 | COc1cc2nc(Cl)nc(N(C)c3ccccc3)c2cc1OC | > 50 µM | > 50 µM |  | 
4 | COc1nc(N(C)c2ccccc2)c2cc(OC)c(OC)cc2n1 | > 50 µM | > 50 µM |  | 
5 | Cc1cccc(N(C)c2ncnc3n[nH]cc23)c1 | 0.18 µM | > 50 µM |  | 
6 | CN(c1ccccc1)c1ncnc2ccccc12 | > 20 µM | > 50 µM |  | 
7 | CN(c1ccccc1)c1ncnc2[nH]cnc12 | 4 µM | 2 µM |  | 
8 | COc1cc2ncnc(N(C)c3cccc(C(F)(F)F)c3)c2cc1OC | 0.5 µM | 30 µM |  | 
9 | CN(c1ccccc1)c1[nH]cnc2nncc1-2 | 0.6 µM | > 50 µM |  | 
10 | COc1cc2ncnc(Nc3ccccc3)c2cc1OC | > 50 µM | 0.05 µM |  | 
11 | COc1ccc2ncnc(N(C)c3ccccc3)c2c1 | 20 µM | > 20 µM |  | 
12 | COc1cc2ncnc(N(C)c3ccc(Cl)cc3)c2cc1OC | 2.1 µM | 3 µM |  | 
13 | COc1cc2ncnc(N(C)c3ccccc3)c2cc1OC |  | 4 µM | 15 µM | > 100 µM
14 | COc1cc2ncnc(Nc3cc(OC)c(OC)c(OC)c3)c2cc1OC | > 100 µM |  | 20 µM | 
15 | COc1cc2c(N(C)c3ccccc3)ncnc2c(OC)c1OC | > 20 µM | > 20 µM |  | 
16 | COc1cc2ncnc(N(C)c3ccc(C)cc3)c2cc1OC | 2 µM | 4 µM |  | 
17 | COc1cc2ncnc(N3CCc4ccccc43)c2cc1OC | 5 µM | 3 µM |  | 
18 | COc1cc2ncnc(N(C)c3cccc(C)c3)c2cc1OC | 0.18 µM | 12 µM |  | 
19 | COc1cc2ncnc(N(C)c3cccc(Cl)c3)c2cc1OC | 1.5 µM | 0.1 µM |  | 
20 | CCN(c1ccccc1)c1ncnc2cc(OC)c(OC)cc12 |  | 5.5 µM |  | 
21 | Cc1cccc(N(C)c2ncnc3cc(C)c(C)cc23)c1 | 1.6 µM | 6.5 µM |  | 
